The values below come from US5374764A, “5-aminosulfonanilide compounds” (Taisho Pharmaceutical Co., Ltd., priority 1991, dated 1994).

The test system of the assay is adjuvant arthritis. Nature of the assay: Test of action on adjuvant arthritis (therapy). The following applies: Rattus norvegicus, 96 h; oral, 1 mg/kg once a day for 4 days, in 5% gum arabic; Lewis rats with fully developed adjuvant arthritis; foot volume on day after final administration; read-out: Edema inhibition ratio (%). Format: in vivo, Lewis strain rats.

Turning to `CS(=O)(=O)Nc1cc(NC=O)c([N+](=O)[O-])cc1OC1CCCCC1` [Test drug 2], the inhibition in vivo at 1 mg/kg was 43.1%.
For `CS(=O)(=O)Nc1ccc([N+](=O)[O-])cc1OC1CCCCC1` [compound 11] the value was 19.7%.
Next, `CCCOC(=O)C(=O)Nc1cc(NS(C)(=O)=O)c(OC2CCCCC2)cc1[N+](=O)[O-]` [Test drug 7]: 37.2%.
For `CS(=O)(=O)Nc1cc(N)c([N+](=O)[O-])cc1OC1CCCCC1` [Test drug 10, N-(5-amino-2-cyclohexyloxy-4-nitrophenyl)methanesulfonamide] the value was 46.7%; for `CCOC(=O)CCC(=O)Nc1cc(NS(C)(=O)=O)c(OC2CCCCC2)cc1[N+](=O)[O-]` [Test drug 9], 52.8%; for `COC(=O)CC(=O)Nc1cc(NS(C)(=O)=O)c(OC2CCCCC2)cc1[N+](=O)[O-]` [Test drug 8], 38%.
Consider `CCOC(=O)C(=O)Nc1cc(NS(C)(=O)=O)c(OC2CCCCC2)cc1[N+](=O)[O-]` [Test drug 6], for which the inhibition in vivo at 1 mg/kg was found to be 50.9%.
Consider `CCCCC(=O)Nc1cc(NS(C)(=O)=O)c(OC2CCCCC2)cc1[N+](=O)[O-]` [Test drug 1, N-[2-cyclohexyloxy-4-nitro-5-(n-valerylamino)phenyl]methanesulfonamide], for which the inhibition in vivo at 1 mg/kg worked out at 46.5%.
For `CCCC(=O)Nc1cc(NS(C)(=O)=O)c(OC2CCCCC2)cc1[N+](=O)[O-]` [Test drug 5, N-[5-(n-butyrylamino)-2-cyclohexyloxy-4-nitrophenyl)methanesulfonamide], the inhibition in vivo at 1 mg/kg was determined as 44.2%.
As for `CC(=O)Nc1cc(NS(C)(=O)=O)c(OC2CCCCC2)cc1[N+](=O)[O-]` [Test drug 3], the inhibition in vivo at 1 mg/kg was 45.7%.
Take `CCC(=O)Nc1cc(NS(C)(=O)=O)c(OC2CCCCC2)cc1[N+](=O)[O-]` [Test drug 4]: the inhibition in vivo at 1 mg/kg is 48.5%.
